Where a SMILES comes first, the peptide text is derived from it. Bridges are numbered along the chain shown (N, C = ends). [ ]: non-standard residue; d: D form. ξ: configuration not given here. Bta = N[C@@H](Cc1csc2ccccc12)C(=O)O; Hyp = O=C(O)[C@@H]1C[C@@H](O)CN1; NMeNle = CCCC[C@H](NC)C(=O)O; d(hSer) = N[C@H](CCO)C(=O)O; hSer = N[C@@H](CCO)C(=O)O; NMeA = CN[C@@H](C)C(=O)O; ξC = NC(CS)C(=O)O
Biological target: T1, Human PD-L1/PD-1 (Homo sapiens, UniProt Q9NZQ7)
T1 construct: TVMV protease cleavage site (C); made in house; host or cells: HEK293T cells
Assay: HTRF Human PD-L1/PD-1 binding assay (PD-1-Ig/PD-L1-His)
Conditions: PD-L1-His 10 nM, PD-1-Ig 20 nM; class symbol; read-out: HTRF Human PD-L1/PD-1 Binding Assay IC50 Range
In short: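 Inhibitors were preincubated 15 min with human PD-L1(18-239)-His (10 nM final), then PD-1(25-167)-Ig (20 nM final) was added for 15 min in dPBS/0.1% BSA/0.05% Tween-20. Eu-cryptate anti-Ig (1 nM) and APC anti-His (20 nM) were added; 665/620 nm ratio read after 30 min.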

T1 sequence (Q9NZQ7 with tags, fused parts or gaps): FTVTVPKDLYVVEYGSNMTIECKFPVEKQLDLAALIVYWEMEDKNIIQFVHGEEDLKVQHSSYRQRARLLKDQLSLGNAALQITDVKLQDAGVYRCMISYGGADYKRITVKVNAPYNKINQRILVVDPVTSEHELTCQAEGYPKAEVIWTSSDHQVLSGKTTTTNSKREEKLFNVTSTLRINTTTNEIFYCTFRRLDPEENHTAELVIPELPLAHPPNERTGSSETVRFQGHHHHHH

Question: How did the IC50 turn out when `CCCC[C@H]1C(=O)N(C)[C@@H](C)C(=O)N[C@@H](CCCNC(=N)N)C(=O)NC(C(=O)NCC(N)=O)CSCC(=O)N[C@@H](Cc2ccc(O)cc2)C(=O)N(C)[C@@H](C)C(=O)N[C@@H](CC(N)=O)C(=O)N2CCC[C@H]2C(=O)N[C@@H](CO)C(=O)N[C@H](CC(C)C)C(=O)N2C[C@H](O)C[C@H]2C(=O)N[C@@H](Cc2c[nH]c3ccccc23)C(=O)N[C@@H](CO)C(=O)N[C@@H](Cc2csc3ccccc23)C(=O)N1C` (stereo partly drawn) [Example 9116] ({CH2CO}-Y[NMeA]NPS[dL][Hyp]WS[Bta][NMeNle][NMeA]R[ξC]G-NH2; thioether N-14) was run?
Answer: 10 to 99.9 nM

Question: For `CCCC[C@H]1C(=O)N(C)[C@@H](C)C(=O)N[C@@H](CCCNC(=N)N)C(=O)NC(C(=O)NCC(N)=O)CSCC(=O)N[C@@H](Cc2ccc(O)cc2)C(=O)N(C)[C@@H](C)C(=O)N[C@@H](CC(N)=O)C(=O)N2CCC[C@H]2C(=O)N[C@@H](Cc2cnc[nH]2)C(=O)N[C@H](CO)C(=O)N2CCC[C@H]2C(=O)N[C@@H](Cc2c[nH]c3ccccc23)C(=O)N[C@@H](CO)C(=O)N[C@@H](Cc2c[nH]c3ccccc23)C(=O)N1C` (stereo partly drawn) [Example 9117] ({CH2CO}-Y[NMeA]NPH[dS]PWSW[NMeNle][NMeA]R[ξC]G-NH2; thioether N-14), which IC50 is on record?
Answer: 10 to 99.9 nM

Question: With `CCCC[C@H]1C(=O)N(C)[C@@H](C)C(=O)N[C@@H](CCCNC(=N)N)C(=O)NC(C(=O)NCC(N)=O)CSCC(=O)N[C@@H](Cc2ccc(O)cc2)C(=O)N(C)[C@@H](C)C(=O)N[C@@H](CC(N)=O)C(=O)N2CCC[C@H]2C(=O)N[C@@H](Cc2cnc[nH]2)C(=O)N[C@H](CO)C(=O)N2C[C@H](O)C[C@H]2C(=O)N[C@@H](Cc2c[nH]c3ccccc23)C(=O)N[C@@H](CO)C(=O)N[C@@H](Cc2c[nH]c3ccccc23)C(=O)N1C` (stereo partly drawn) [Example 9119] ({CH2CO}-Y[NMeA]NPH[dS][Hyp]WSW[NMeNle][NMeA]R[ξC]G-NH2; thioether N-14) as the molecule, how does the IC50 read?
Answer: 10 to 99.9 nM

Question: How did the IC50 turn out when `CCCC[C@H]1C(=O)N(C)[C@@H](C)C(=O)N[C@@H](CCCNC(=N)N)C(=O)NC(C(=O)NCC(N)=O)CSCC(=O)N[C@@H](Cc2ccc(O)cc2)C(=O)N(C)[C@@H](C)C(=O)N[C@@H](CC(N)=O)C(=O)N2CCC[C@H]2C(=O)N[C@@H](Cc2cnc[nH]2)C(=O)N[C@H](CO)C(=O)N2C[C@H](O)C[C@H]2C(=O)N[C@@H](Cc2c[nH]c3ccccc23)C(=O)N[C@@H](CO)C(=O)N[C@@H](Cc2csc3ccccc23)C(=O)N1C` (stereo partly drawn) [Example 9120] ({CH2CO}-Y[NMeA]NPH[dS][Hyp]WS[Bta][NMeNle][NMeA]R[ξC]G-NH2; thioether N-14) was run?
Answer: 10 to 99.9 nM

Question: With `CCCC[C@H]1C(=O)N(C)[C@@H](C)C(=O)N[C@@H](CCCNC(=N)N)C(=O)NC(C(=O)N[C@@H](CO)C(N)=O)CSCC(=O)N[C@@H](Cc2ccc(O)cc2)C(=O)N(C)[C@@H](C)C(=O)N[C@@H](CC(N)=O)C(=O)N2CCC[C@H]2C(=O)N[C@@H](CO)C(=O)N[C@H](CC(C)C)C(=O)N2CCC[C@H]2C(=O)N[C@@H](Cc2c[nH]c3ccccc23)C(=O)N[C@@H](CO)C(=O)N[C@@H](Cc2c[nH]c3ccccc23)C(=O)N1C` (stereo partly drawn) [Example 9121] ({CH2CO}-Y[NMeA]NPS[dL]PWSW[NMeNle][NMeA]R[ξC]S-NH2; thioether N-14) as the molecule, how does the IC50 read?
Answer: 10 to 99.9 nM

Question: `CCCC[C@H]1C(=O)N(C)[C@@H](C)C(=O)N[C@@H](CCCNC(=N)N)C(=O)NC(C(=O)N[C@@H](CO)C(N)=O)CSCC(=O)N[C@@H](Cc2ccc(O)cc2)C(=O)N(C)[C@@H](C)C(=O)N[C@@H](CC(N)=O)C(=O)N2CCC[C@H]2C(=O)N[C@@H](CO)C(=O)N[C@H](CC(C)C)C(=O)N2CCC[C@H]2C(=O)N[C@@H](Cc2c[nH]c3ccccc23)C(=O)N[C@@H](CO)C(=O)N[C@@H](Cc2csc3ccccc23)C(=O)N1C` (stereo partly drawn) [Example 9122] ({CH2CO}-Y[NMeA]NPS[dL]PWS[Bta][NMeNle][NMeA]R[ξC]S-NH2; thioether N-14) was tested. Which IC50 did it give?
Answer: 10 to 99.9 nM

Question: `CCCC[C@H]1C(=O)N(C)[C@@H](C)C(=O)N[C@@H](CCCNC(=N)N)C(=O)NC(C(=O)N[C@@H](CO)C(N)=O)CSCC(=O)N[C@@H](Cc2ccc(O)cc2)C(=O)N(C)[C@@H](C)C(=O)N[C@@H](CC(N)=O)C(=O)N2CCC[C@H]2C(=O)N[C@@H](CO)C(=O)N[C@H](CC(C)C)C(=O)N2C[C@H](O)C[C@H]2C(=O)N[C@@H](Cc2c[nH]c3ccccc23)C(=O)N[C@@H](CO)C(=O)N[C@@H](Cc2c[nH]c3ccccc23)C(=O)N1C` (stereo partly drawn) [Example 9123] ({CH2CO}-Y[NMeA]NPS[dL][Hyp]WSW[NMeNle][NMeA]R[ξC]S-NH2; thioether N-14) was tested. Which IC50 did it give?
Answer: 1 to 9.9 nM

Question: Which IC50 does the source give for `CCCC[C@H]1C(=O)N(C)[C@@H](C)C(=O)N[C@@H](CCCNC(=N)N)C(=O)NC(C(=O)N[C@@H](CO)C(N)=O)CSCC(=O)N[C@@H](Cc2ccc(O)cc2)C(=O)N(C)[C@@H](C)C(=O)N[C@@H](CC(N)=O)C(=O)N2CCC[C@H]2C(=O)N[C@@H](CO)C(=O)N[C@H](CC(C)C)C(=O)N2C[C@H](O)C[C@H]2C(=O)N[C@@H](Cc2c[nH]c3ccccc23)C(=O)N[C@@H](CO)C(=O)N[C@@H](Cc2csc3ccccc23)C(=O)N1C` (stereo partly drawn) [Example 9124] ({CH2CO}-Y[NMeA]NPS[dL][Hyp]WS[Bta][NMeNle][NMeA]R[ξC]S-NH2; thioether N-14) here?
Answer: 10 to 99.9 nM

Question: Which IC50 does the source give for `CCCC[C@H]1C(=O)N(C)[C@@H](CCCC)C(=O)N[C@@H](CCCNC(=N)N)C(=O)NC(C(=O)NCC(N)=O)CSCC(=O)N[C@@H](Cc2ccc(O)cc2)C(=O)N(C)[C@@H](C)C(=O)N[C@@H](CC(N)=O)C(=O)N2CCC[C@H]2C(=O)N[C@@H](Cc2cnc[nH]2)C(=O)N[C@H](CCO)C(=O)N2C[C@H](O)C[C@H]2C(=O)N[C@@H](Cc2c[nH]c3ccccc23)C(=O)N[C@@H](CO)C(=O)N[C@@H](Cc2c[nH]c3ccccc23)C(=O)N1C` (stereo partly drawn) [Example 9125] ({CH2CO}-Y[NMeA]NPH[d(hSer)][Hyp]WSW[NMeNle][NMeNle]R[ξC]G-NH2; thioether N-14) here?
Answer: 10 to 99.9 nM

Question: How did the IC50 turn out when `CCCC[C@H]1C(=O)N(C)[C@@H](CCCC)C(=O)N[C@@H](CCCNC(=N)N)C(=O)NC(C(=O)NCC(N)=O)CSCC(=O)N[C@@H](Cc2ccc(O)cc2)C(=O)N(C)[C@@H](C)C(=O)N[C@@H](CC(N)=O)C(=O)N2CCC[C@H]2C(=O)N[C@@H](Cc2cnc[nH]2)C(=O)N[C@@H](CCO)C(=O)N2CCC[C@H]2C(=O)N[C@@H](Cc2c[nH]c3ccccc23)C(=O)N[C@@H](CO)C(=O)N[C@@H](Cc2csc3ccccc23)C(=O)N1C` (stereo partly drawn) [Example 9126] ({CH2CO}-Y[NMeA]NPH[hSer]PWS[Bta][NMeNle][NMeNle]R[ξC]G-NH2; thioether N-14) was run?
Answer: 1 to 9.9 nM

Question: `CCCC[C@H]1C(=O)N(C)[C@@H](CCCC)C(=O)N[C@@H](CCCNC(=N)N)C(=O)NC(C(=O)NCC(N)=O)CSCC(=O)N[C@@H](Cc2ccc(O)cc2)C(=O)N(C)[C@@H](C)C(=O)N[C@@H](CC(N)=O)C(=O)N2CCC[C@H]2C(=O)N[C@@H](CCO)C(=O)N[C@@H](CC(C)C)C(=O)N2C[C@H](O)C[C@H]2C(=O)N[C@@H](Cc2c[nH]c3ccccc23)C(=O)N[C@@H](CO)C(=O)N[C@@H](Cc2c[nH]c3ccccc23)C(=O)N1C` (stereo partly drawn) [Example 9127] ({CH2CO}-Y[NMeA]NP[hSer]L[Hyp]WSW[NMeNle][NMeNle]R[ξC]G-NH2; thioether N-14) was tested. Which IC50 did it give?
Answer: 1 to 9.9 nM

Question: Which IC50 does the source give for `CCCC[C@H]1C(=O)N(C)[C@@H](CCCC)C(=O)N[C@@H](CCCNC(=N)N)C(=O)NC(C(=O)NCC(N)=O)CSCC(=O)N[C@@H](Cc2ccc(O)cc2)C(=O)N(C)[C@@H](C)C(=O)N[C@@H](CC(N)=O)C(=O)N2CCC[C@H]2C(=O)N[C@@H](CC(N)=O)C(=O)N[C@@H](CC(C)C)C(=O)N2CCC[C@H]2C(=O)N[C@@H](Cc2c[nH]c3ccccc23)C(=O)N[C@@H](CCO)C(=O)N[C@@H](Cc2c[nH]c3ccccc23)C(=O)N1C` (stereo partly drawn) [Example 9128] ({CH2CO}-Y[NMeA]NPNLPW[hSer]W[NMeNle][NMeNle]R[ξC]G-NH2; thioether N-14) here?
Answer: 1 to 9.9 nM

Question: How did the IC50 turn out when `CCCC[C@H]1C(=O)N(C)[C@@H](CCCC)C(=O)N[C@@H](CCCNC(=N)N)C(=O)NC(C(=O)NCC(N)=O)CSCC(=O)N[C@@H](Cc2ccc(O)cc2)C(=O)N(C)[C@@H](C)C(=O)N[C@@H](CC(N)=O)C(=O)N2CCC[C@H]2C(=O)N[C@@H](CC(N)=O)C(=O)N[C@@H](CC(C)C)C(=O)N2CCC[C@H]2C(=O)N[C@@H](Cc2c[nH]c3ccccc23)C(=O)N[C@@H](CCO)C(=O)N[C@@H](Cc2csc3ccccc23)C(=O)N1C` (stereo partly drawn) [Example 9129] ({CH2CO}-Y[NMeA]NPNLPW[hSer][Bta][NMeNle][NMeNle]R[ξC]G-NH2; thioether N-14) was run?
Answer: 1 to 9.9 nM

Question: How did the IC50 turn out when `CCCC[C@H]1C(=O)N(C)[C@@H](CCCC)C(=O)N[C@@H](CCCNC(=N)N)C(=O)NC(C(=O)NCC(N)=O)CSCC(=O)N[C@@H](Cc2ccc(O)cc2)C(=O)N(C)[C@@H](C)C(=O)N[C@@H](CC(N)=O)C(=O)N2CCC[C@H]2C(=O)N[C@@H](CC(N)=O)C(=O)N[C@@H](CC(C)C)C(=O)N2C[C@H](O)C[C@H]2C(=O)N[C@@H](Cc2c[nH]c3ccccc23)C(=O)N[C@@H](CCO)C(=O)N[C@@H](Cc2c[nH]c3ccccc23)C(=O)N1C` (stereo partly drawn) [Example 9130] ({CH2CO}-Y[NMeA]NPNL[Hyp]W[hSer]W[NMeNle][NMeNle]R[ξC]G-NH2; thioether N-14) was run?
Answer: 1 to 9.9 nM

Same assay, conditions: PD-L1-His 10 nM, PD-1-Ig 20 nM; read-out: HTRF Human PD-L1/PD-1 Binding Assay IC50

Question: How did the IC50 turn out when `CCCC[C@H]1C(=O)N(C)[C@@H](C)C(=O)N[C@@H](CCCNC(=N)N)C(=O)NC(C(=O)NCC(N)=O)CSCC(=O)N[C@@H](Cc2ccc(O)cc2)C(=O)N(C)[C@@H](C)C(=O)N[C@@H](CC(N)=O)C(=O)N2CCC[C@H]2C(=O)N[C@@H](Cc2cnc[nH]2)C(=O)N[C@H](CO)C(=O)N2CCC[C@H]2C(=O)N[C@@H](Cc2c[nH]c3ccccc23)C(=O)N[C@@H](CO)C(=O)N[C@@H](Cc2csc3ccccc23)C(=O)N1C` (stereo partly drawn) [Example 9118] ({CH2CO}-Y[NMeA]NPH[dS]PWS[Bta][NMeNle][NMeA]R[ξC]G-NH2; thioether N-14) was run?
Answer: 27 nM

From patent publication US10538555B2, “Macrocyclic inhibitors of the PD-1/PD-L1 and CD80(B7-1)/PD-L1 protein/protein interactions” (BRISTOL-MYERS SQUIBB COMPANY, priority 2014, dated 2020)
